Experimental data from US7163689B2, “Intravenous valproate for acute treatment of migraine headache” (priority 1999, dated 2007).
“And” between values parts separate entries of the source, which are not always exact repeats. Equal entries are not always repeated.

Legend:
[1] = system: patients with moderate to severe headaches of 24–72 hours duration; experiment: Expanded study: IV VPA vs DHE with metoclopramide IM, acute migraine headache (Example 2); format: in vivo, human; conditions: for % Headache Relief: 10 patients per group; for Headache Severity / Nausea/vomiting / Phonophobia / Photophobia: individual patient; for Headache Severity: grade 0-3; for Nausea/vomiting / Phonophobia / Photophobia: presence
Description: This Example describes an expanded study and analysis of the effectiveness of intravenous VPA for the treatment of acute migraine headache of significant duration. Patient data from the pilot study described in Example 1 has been incorporated and further analyzed in addition to new patient data. • Design. […] Patients alternately received intravenous VPA 500 mgs over 15–30 minutes, or dihydroergotamine (“DHE”) 1 mg with metoclopramide 10 mgs intramuscularly (“IM”). Age ranged from 22 to 73 years. Patients rated severity of headache, presence or absence of nausea, photophobia, and phonophobia at 1, 2 and 4 hrs. Table V and Table VI. • Results. In the 10 patients receiving DHE and metoclopramide, 40% had headache relief at 1 hour, 50% at 2 hours, 60% at 4 hours. The percent with nausea at 0, 1, 2, and 4 hours was 60%, 10%, 20%, 30% respectively, photophobia at 0, 1, 2, and 4 hours 100%, 50%, 50%, 40% respectively, phonophobia at 0, 1, 2, and 4 hours 80%, 30%, 50%, 40% respectively. In the 10 patients receiving i.v. VPA, 60% had headache relief at 1 hour, 70% at 2 hours, 70% at 4 hours, the percent with nausea at 0, 1, 2, and 4 hours was 70%, 30% 30%, 20% respectively, photophobia at 0, 1, 2, and 4 hours was 100%, 40%, 40%, 30% respectively, and phonophobia at 0, 1, 2, and 4 hours was 90%, 40%, 40%, 30% respectively. Table VII. • Conclusions. The results of the present study indicate that intravenous VPA is at least as efficacious as DHE for abortive treatment of acute migraine. Accordingly, intravenous VPA offers a treatment option for migraine headache patients who have recently used a triptan or DHE without the risk of drug-drug interaction or cardiovascular complications.

acute migraine headache = conditions: at 2 hours after administration; cited from earlier work

CN1C[C@H](C(=O)N[C@]2(C)O[C@@]3(O)[C@@H]4CCCN4C(=O)[C@H](Cc4ccccc4)N3C2=O)C[C@@H]2c3cccc4[nH]cc(c34)C[C@H]21 [DHE, dihydroergotamine]
% experiencing Nausea ([1]; 0-h (baseline)): 60%
% experiencing Phonophobia ([1]; 0-h (baseline)): 80%
% experiencing Photophobia ([1]; 0-h (baseline)): 100%
% experiencing Nausea ([1]; 1-h): 10%
% experiencing Phonophobia ([1]; 1-h): 30%
% experiencing Photophobia ([1]; 1-h): 50%
% experiencing Nausea ([1]; 2-h): 20%
% experiencing Phonophobia ([1]; 2-h): 50%
% experiencing Photophobia ([1]; 2-h): 50%
% experiencing Nausea ([1]; 4-h): 30%
% experiencing Phonophobia ([1]; 4-h): 40%
% experiencing Photophobia ([1]; 4-h): 40%
% Headache Relief ([1]; 1-h): 40%
% Headache Relief ([1]; 2-h): 50%
% Headache Relief ([1]; 4-h): 60%
% Headache Relief ([1]; 24-h): 90%
% experiencing Nausea ([1]; 24-h): 10%
% experiencing Phonophobia ([1]; 24-h): 10%
Headache Severity ([1]; 0-h (baseline), Depacon IV 500 mg or DHE 1 mg IM + Reglan 10 mg IM): 2 (4×) and 3 (6×)
Headache Severity ([1]; 1-h): 3 (2×) and 0 (4×) and 2 (4×)
Headache Severity ([1]; 2-h): 3 (2×) and 0 (4×) and 2 (3×) and 1
Headache Severity ([1]; 4-h): 3 (2×) and 1 (2×) and 0 (4×) and 2 (2×)
Headache Severity ([1]; 24-h): 1 (6×) and 2 and 0 (3×)
Nausea/vomiting ([1]; 0-h (baseline)): 0
Phonophobia ([1]; 0-h (baseline)): 0
Nausea/vomiting ([1]; 1-h): 0
Phonophobia ([1]; 1-h): 0
Photophobia ([1]; 1-h): 0
Nausea/vomiting ([1]; 2-h): 0
Phonophobia ([1]; 2-h): 0
Photophobia ([1]; 2-h): 0
Nausea/vomiting ([1]; 4-h): 0
Phonophobia ([1]; 4-h): 0
Photophobia ([1]; 4-h): 0
Nausea/vomiting ([1]; 24-h): 0
Phonophobia ([1]; 24-h): 0
subjects with good relief of acute migraine headache (acute migraine headache): 70–80%

CCCC(CCC)C(=O)[O-].[Na+] [Depacon, valproate sodium]
% experiencing Nausea ([1]; 0-h (baseline)): 70%
% experiencing Phonophobia ([1]; 0-h (baseline)): 90%
% experiencing Photophobia ([1]; 0-h (baseline)): 100%
% experiencing Nausea ([1]; 1-h): 30%
% experiencing Phonophobia ([1]; 1-h): 40%
% experiencing Photophobia ([1]; 1-h): 40%
% experiencing Nausea ([1]; 2-h): 30%
% experiencing Phonophobia ([1]; 2-h): 40%
% experiencing Photophobia ([1]; 2-h): 40%
% experiencing Nausea ([1]; 4-h): 20%
% experiencing Phonophobia ([1]; 4-h): 30%
% experiencing Photophobia ([1]; 4-h): 30%
% Headache Relief ([1]; 1-h): 60%
% Headache Relief ([1]; 2-h): 70%
% Headache Relief ([1]; 4-h): 70%
% Headache Relief ([1]; 24-h): 50%
% experiencing Nausea ([1]; 24-h): 40%
% experiencing Phonophobia ([1]; 24-h): 60%
Headache Severity ([1]; 0-h (baseline), Depacon IV 500 mg or DHE 1 mg IM + Reglan 10 mg IM, sodium): 3 (5×) and 2 (5×)
Headache Severity ([1]; 1-h, sodium): 1 (4×) and 0 (2×) and 2 (2×) and 3 (2×)
Headache Severity ([1]; 2-h, sodium): 1 (6×) and 2 (3×) and 0
Headache Severity ([1]; 4-h, sodium): 0 (3×) and 1 (4×) and 2 (2×) and 3
Headache Severity ([1]; 24-h, sodium): 1 (3×) and 2 (4×) and 3 and 0 (2×)
Nausea/vomiting ([1]; 0-h (baseline), sodium): 0
Phonophobia ([1]; 0-h (baseline), sodium): 0
Nausea/vomiting ([1]; 1-h, sodium): 0
Phonophobia ([1]; 1-h, sodium): 0
Photophobia ([1]; 1-h, sodium): 0
Nausea/vomiting ([1]; 2-h, sodium): 0
Phonophobia ([1]; 2-h, sodium): 0
Photophobia ([1]; 2-h, sodium): 0
Nausea/vomiting ([1]; 4-h, sodium): 0
Phonophobia ([1]; 4-h, sodium): 0
Photophobia ([1]; 4-h, sodium): 0
Nausea/vomiting ([1]; 24-h, sodium): 0
Phonophobia ([1]; 24-h, sodium): 0
Photophobia ([1]; 24-h, sodium): 0
